Here are results for 18 compounds from patent US4137225A, “Novel chromogenic enzyme substrates” (Ab Kabi, priority 1975, dated 1979).

One data set concerns the target Plasmin (Homo sapiens, UniProt P00747). Kind of data set: Relative reaction rate of enzymatic hydrolysis of chromogenic substrates, plasmin (p-nitroaniline release at 405 nm). The data set is classed as biochemical. The following applies: for Rel Reaction rates, Pl (Plasmin): relative to reference substrate XVIII. An excerpt:
(§1) The substrates prepared according to the examples above are used for determination of different enzymes according to the procedure outlined above.
(§2) The principle for the determination is based on the fact that the splitting product formed by enzymatic hydrolysis has a UV-spectrum which is essentially different from that of the substrate. Thus, e.g. all p-nitro anilide substrates according to the invention have absorption maxima around 310 nm with the molar extinction coefficient of about 12000. At 405 nm the absorption of these substrates has almost completely discontinued. p-Nitroaniline which has been split off from the substrate during the enzymatic hydrolysis has an absorption maximum at 380 nm and a molar extinction coefficient of 13200, which at 405 nm only has decreased to 9620. By spectrophotometric determination at 405 nm it is thus easy to follow the amount of p-nitroaniline formed which is proportional to the degree of the enzymatic hydrolysis which in its turn is determined by the active amount of enzyme.
(§3) In the table above the relative reaction rates for the different substrates are stated in relation to a reference substrate chosen for each enzyme. Symbols, reference substrates and their sensitivity for the respective enzymes are according to the following: […]

In a further data set the test system is Kallikrein. Kind of data set: Relative reaction rate of enzymatic hydrolysis of chromogenic substrates, kallikrein (p-nitroaniline release at 405 nm). The data set is classed as biochemical. The following applies: for Rel Reaction rates, Kal (Kallikrein): relative to reference substrate XVI.
Text: as §1, §2, §3

The next data set in a line: Solubility in buffer. The settings on record: aqueous buffer; Buffer = Tris, pH 8.2, I 0.15. It is filed as physicochemical. The source says: | ^x Buffer = Tris, pH 8.2, I 0.15
The test system of a further data set is Thrombin. Kind of data set: Relative reaction rate of enzymatic hydrolysis of chromogenic substrates, thrombin (p-nitroaniline release at 405 nm). The data set is classed as biochemical. The settings on record: for Rel Reaction rates, T (Thrombin): relative to reference substrate XIV.
Text: as §1, §2, §3

Another data set relates to Trypsin. As to the kind of experiment: Relative reaction rate of enzymatic hydrolysis of chromogenic substrates, trypsin (p-nitroaniline release at 405 nm). It is filed as biochemical. The following applies: for Rel Reaction rates, Try (Trypsin): relative to reference substrate XIII.
Text: as §1, §2, §3

A further data set has as its target Urokinase (Homo sapiens, UniProt P00749). As to the kind of experiment: Relative reaction rate of enzymatic hydrolysis of chromogenic substrates, urokinase (p-nitroaniline release at 405 nm). The settings on record: for Rel Reaction rates, UK (Urokinase): relative to reference substrate XIV. It is filed as biochemical.
Text: as §1, §2, §3

Structures are written as SMILES. ≈ marks a conversion by molar mass, not a printed value. Where a name gives a salt, the structure may show the parent alone. Where a SMILES comes first, the peptide text is derived from it. [ ]: non-standard residue; d: D form. The star is where a group is joined. pNA = O=[N+]([O-])c1ccc(N*)cc1; Pip = O=C(O)[C@@H]1CCCCN1; Bz = O=C(c1ccccc1)* Bounds are passed on as bounds.

Plasmin, sequence (P00747 97-810): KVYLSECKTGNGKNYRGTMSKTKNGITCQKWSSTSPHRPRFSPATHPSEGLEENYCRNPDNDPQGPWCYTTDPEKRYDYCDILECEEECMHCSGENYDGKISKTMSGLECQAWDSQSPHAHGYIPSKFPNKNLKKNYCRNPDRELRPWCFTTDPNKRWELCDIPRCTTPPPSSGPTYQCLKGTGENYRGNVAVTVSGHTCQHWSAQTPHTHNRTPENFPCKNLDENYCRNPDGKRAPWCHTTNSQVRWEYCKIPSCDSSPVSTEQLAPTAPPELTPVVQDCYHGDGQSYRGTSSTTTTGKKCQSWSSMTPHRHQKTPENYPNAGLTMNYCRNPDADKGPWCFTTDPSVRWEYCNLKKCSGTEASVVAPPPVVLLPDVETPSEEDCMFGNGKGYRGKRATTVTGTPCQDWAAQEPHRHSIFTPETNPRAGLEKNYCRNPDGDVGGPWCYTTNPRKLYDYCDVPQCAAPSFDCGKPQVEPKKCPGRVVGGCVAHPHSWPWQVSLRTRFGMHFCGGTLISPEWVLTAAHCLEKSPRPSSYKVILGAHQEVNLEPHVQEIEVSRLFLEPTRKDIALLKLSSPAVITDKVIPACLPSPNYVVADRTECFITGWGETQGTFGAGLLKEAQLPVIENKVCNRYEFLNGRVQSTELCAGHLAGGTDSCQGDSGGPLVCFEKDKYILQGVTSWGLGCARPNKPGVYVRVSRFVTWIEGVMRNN

Consider `CC[C@H](C)[C@H](NC(=O)c1ccccc1)C(=O)N[C@@H](CC(C)C)C(=O)N[C@@H](CCCNC(=N)N)C(=O)Nc1ccc([N+](=O)[O-])cc1` [Bz-Ile-Leu-Arg-pNA] (Bz-Ile-Leu-Arg-pNA), for which the “Rel Reaction rates, Pl (Plasmin)” value on Plasmin was determined as 55. The “Rel Reaction rates, Kal (Kallikrein)” value in the data set on Kallikrein is 100. Moreover, the solubility in “Solubility in buffer” turned out to be 200 µg/mL (≈ 320 µM).

As to `CC[C@H](C)[C@H](NC(=O)c1ccccc1)C(=O)N[C@@H](CC(C)C)C(=O)N[C@@H](CCCCN)C(=O)Nc1ccc([N+](=O)[O-])cc1` [Bz-Ile-Leu-Lys-pNA] (Bz-Ile-Leu-Lys-pNA), the “Rel Reaction rates, Pl (Plasmin)” value at Plasmin came out at 130. In addition, the solubility in the data set “Solubility in buffer” was determined as 1000 µg/mL (≈ 1680 µM).

Turning to `CC(C)C[C@H](NC(=O)[C@@H](NC(=O)c1ccccc1)C(C)C)C(=O)N[C@@H](CCCNC(=N)N)C(=O)Nc1ccc([N+](=O)[O-])cc1` [Bz-Val-Leu-Arg-pNA] (Bz-Val-Leu-Arg-pNA), the “Rel Reaction rates, Kal (Kallikrein)” value with Kallikrein stood at 100. Besides, the concentration in solution in the data set “Solubility in buffer” (solubility) was 200 µg/mL (≈ 327 µM).

With `CC(C)C[C@H](NC(=O)[C@@H](NC(=O)c1ccccc1)C(C)C)C(=O)N[C@@H](CCCCN)C(=O)Nc1ccc([N+](=O)[O-])cc1` [Bz-Val-Leu-Lys-pNA] (Bz-Val-Leu-Lys-pNA), the “Rel Reaction rates, Pl (Plasmin)” value on Plasmin amounted to 100. The solubility in “Solubility in buffer” was 500 µg/mL (≈ 858 µM).

With `CC(C)[C@H](NC(=O)c1ccccc1)C(=O)N1CCCC[C@H]1C(=O)N[C@@H](CCCNC(=N)N)C(=O)Nc1ccc([N+](=O)[O-])cc1` [Bz-Val-Pip-Arg-pNA] (Bz-Val-[Pip]-Arg-pNA), the “Rel Reaction rates, T (Thrombin)” value in the data set on Thrombin was determined as 4. The “Rel Reaction rates, Try (Trypsin)” value in the data set on Trypsin came to 45. Further, the “Rel Reaction rates, UK (Urokinase)” value at Urokinase is on record as 30.

For the compound `CC(C)[C@H](NC(=O)c1ccccc1)C(=O)N1CCC[C@H]1C(=O)N[C@@H](CCCNC(=N)N)C(=O)Nc1ccc([N+](=O)[O-])cc1` [Bz-Val-Pro-Arg-pNA] (Bz-Val-Pro-Arg-pNA), the “Rel Reaction rates, T (Thrombin)” value with Thrombin stood at 6. Moreover, in the data set with Trypsin, the “Rel Reaction rates, Try (Trypsin)” value is 60. Also, on Urokinase, the “Rel Reaction rates, UK (Urokinase)” value is on record as 15. This compound returned a solubility in “Solubility in buffer” of 300 µg/mL (≈ 504 µM).

For `CC[C@H](C)[C@H](N)C(=O)N[C@@H](CC(C)C)C(=O)N[C@@H](CCCNC(=N)N)C(=O)Nc1ccc([N+](=O)[O-])cc1` [H-Ile-Leu-Arg-pNA] (H-Ile-Leu-Arg-pNA), the “Rel Reaction rates, Pl (Plasmin)” value at Plasmin was 10. In the data set on Kallikrein, the “Rel Reaction rates, Kal (Kallikrein)” value came to 20.

As for `CC[C@H](C)[C@H](N)C(=O)N[C@@H](CC(C)C)C(=O)N[C@@H](CCCCN)C(=O)Nc1ccc([N+](=O)[O-])cc1` [H-Ile-Leu-Lys-pNA] (H-Ile-Leu-Lys-pNA), the “Rel Reaction rates, Pl (Plasmin)” value at Plasmin is reported as 35.

Consider `CC(C)C[C@H](NC(=O)[C@@H](N)C(C)C)C(=O)N[C@@H](CCCNC(=N)N)C(=O)Nc1ccc([N+](=O)[O-])cc1` [H-Val-Leu-Arg-pNA] (H-Val-Leu-Arg-pNA), for which the “Rel Reaction rates, Kal (Kallikrein)” value in the data set with Kallikrein is given as 50.

On to `CC(C)C[C@H](NC(=O)[C@@H](N)C(C)C)C(=O)N[C@@H](CCCCN)C(=O)Nc1ccc([N+](=O)[O-])cc1` [H-Val-Leu-Lys-pNA] (H-Val-Leu-Lys-pNA), for which, on Plasmin, the “Rel Reaction rates, Pl (Plasmin)” value is 25.

On to `CC(C)[C@H](N)C(=O)N1CCCC[C@H]1C(=O)N[C@@H](CCCNC(=N)N)C(=O)Nc1ccc([N+](=O)[O-])cc1` [H-Val-Pip-Arg-pNA] (H-Val-[Pip]-Arg-pNA), for which the “Rel Reaction rates, T (Thrombin)” value in the data set with Thrombin is reported as 4. The “Rel Reaction rates, Try (Trypsin)” value in the data set with Trypsin was determined as 35. Further, the “Rel Reaction rates, UK (Urokinase)” value on Urokinase was 45.

Turning to `CC(C)[C@H](N)C(=O)N1CCC[C@H]1C(=O)N[C@@H](CCCNC(=N)N)C(=O)Nc1ccc([N+](=O)[O-])cc1` [H-Val-Pro-Arg-pNA] (H-Val-Pro-Arg-pNA), in the data set on Thrombin, the “Rel Reaction rates, T (Thrombin)” value was determined as 6. In addition, the “Rel Reaction rates, Try (Trypsin)” value in the data set with Trypsin came out at 55. Moreover, the “Rel Reaction rates, UK (Urokinase)” value on Urokinase is reported as 15. This compound also showed a solubility in the data set “Solubility in buffer” of 40000 µg/mL (≈ 81500 µM).

Turning to `CC(C)[C@@H](N)C(=O)N1CCC[C@H]1C(=O)N[C@@H](CCCNC(=N)N)C(=O)Nc1ccc([N+](=O)[O-])cc1` [XIII, H-D-Val-Pro-Arg-pNA . 2 HCl] (H-[dV]-Pro-Arg-pNA), the “Rel Reaction rates, T (Thrombin)” value in the data set on Thrombin is recorded as 80. For the same compound, the “Sensitivity (stated amount of enzyme gives the activity 0.1 nkat)” value (shortened to “Sensitivity”) in the data set with Trypsin (Trypsin, 0.1 nkat, ΔOD/min = 0.0254) was 0.03 µg (Novo). Moreover, the “Rel Reaction rates, Try (Trypsin)” value in the data set on Trypsin is listed as 100. On Urokinase, the “Rel Reaction rates, UK (Urokinase)” value worked out at 95. In “Solubility in buffer”, the solubility came out at 100000 µg/mL.

As for `CC(C)[C@@H](N)C(=O)N1CCCC[C@H]1C(=O)N[C@@H](CCCNC(=N)N)C(=O)Nc1ccc([N+](=O)[O-])cc1` [XIV, H-D-Val-Pip-Arg-pNA . 2 HCl] (H-[dV]-[Pip]-Arg-pNA), the “Sensitivity” value in the data set on Thrombin (Thrombin, 0.1 nkat, ΔOD/min = 0.0254) is recorded as 0.06 INH; on Urokinase (Urokinase, 0.1 nkat, ΔOD/min = 0.0254), 40 Ploug E. Moreover, the “Rel Reaction rates, T (Thrombin)” value in the data set with Thrombin is 100. For the same compound, the “Rel Reaction rates, Try (Trypsin)” value in the data set with Trypsin is listed as 70. Moreover, the “Rel Reaction rates, UK (Urokinase)” value on Urokinase turned out to be 100.

Take `CC[C@@H](C)[C@@H](N)C(=O)N[C@@H](CC(C)C)C(=O)N[C@@H](CCCNC(=N)N)C(=O)Nc1ccc([N+](=O)[O-])cc1` [XV, H-D-Ile-Leu-Arg-pNA . 2 HCl] (H-[dI]-Leu-Arg-pNA): the “Rel Reaction rates, Pl (Plasmin)” value at Plasmin is reported as 75. Further, the “Rel Reaction rates, Kal (Kallikrein)” value with Kallikrein is reported as 100. For the same compound, the solubility in the data set “Solubility in buffer” came out at 4000 µg/mL.

On to `CC(C)C[C@H](NC(=O)[C@H](N)C(C)C)C(=O)N[C@@H](CCCNC(=N)N)C(=O)Nc1ccc([N+](=O)[O-])cc1` [XVI, H-D-Val-Leu-ARg-pNA . 2 HCl] (H-[dV]-Leu-Arg-pNA), for which the “Sensitivity” value in the data set with Kallikrein (Kallikrein, 0.1 nkat, ΔOD/min = 0.0254) is 0.2 Be. For the same compound, the “Rel Reaction rates, Kal (Kallikrein)” value with Kallikrein came out at 100. Moreover, the solubility in “Solubility in buffer” amounted to 600000 µg/mL.

As to `CC[C@@H](C)[C@@H](N)C(=O)N[C@@H](CC(C)C)C(=O)N[C@@H](CCCCN)C(=O)Nc1ccc([N+](=O)[O-])cc1` [XVII, H-D-Ile-Leu-Lys-pNA . 2 HCl] (H-[dI]-Leu-Lys-pNA), at Plasmin, the “Rel Reaction rates, Pl (Plasmin)” value was 100. The solubility in “Solubility in buffer” was determined as 20000 µg/mL.

Regarding `CC(C)C[C@H](NC(=O)[C@H](N)C(C)C)C(=O)N[C@@H](CCCCN)C(=O)Nc1ccc([N+](=O)[O-])cc1` [XVIII, H-D-Val-Leu-Lys-pNA . 2 HCl] (H-[dV]-Leu-Lys-pNA), the “Sensitivity” value on Plasmin (Plasmin, 0.1 nkat, ΔOD/min = 0.0254) is reported as 0.01 CU. On Plasmin, the “Rel Reaction rates, Pl (Plasmin)” value turned out to be 100. In addition, in “Solubility in buffer”, the solubility was over 100000 µg/mL.

By solubility is commonly meant how much of the substance goes into solution per volume. Read a high solubility as much dissolved substance.
